≈ marks a conversion by molar mass, not a printed value. Like-named read-outs stand apart in the source and are kept apart here.
Assays:
[1] = system: Escherichia coli; assay: In vitro antibacterial activity, agar dilution method (MIC); format: cell-based; conditions: Escherichia coli, agar dilution, 35°C, 18 hours, read-out: MIC
Procedure, shortened: (§1)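 CLSI agar dilution: broth cultures adjusted to 0.5 McFarland (~1-2 × 10^8 CFU/mL), diluted 10-fold, then multipoint-inoculated at ~10^4 CFU/spot onto drug-containing agar plates. After 18 h at 35°C, MIC was taken as the lowest drug concentration on plates showing no growth.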

[2] = system: Proteus vulgaris; assay: as above; format: cell-based; conditions: ATCC29905; Proteus vulgaris ATCC 29905; agar dilution, 35°C, 18 hours; read-out: MIC
Procedure, shortened: as §1

[3] = system: Vero cells; assay: Vero cytotoxicity (CCK-8); format: cell-based; conditions: Chlorocebus sabaeus; Vero cells, 24 hours incubation, CCK-8; read-out: IC50
Method: All liquid was transferred to a 15 mL centrifuge tube and centrifuged at 800 rpm for 5 min. […] A cell counter was used to measure cell density. Cells were inoculated at 100 µL and a density of 3 × 10^5/mL into a 96-well plate, with 6 replicates per group, and incubated at 37°C for 4 hours to allow cells to adhere to the wall. The compound was twofold continuously diluted with PBS, and 10 µL of the compound with the corresponding concentration was added to the 96-well plate, and shaken and mixed well on a shaker, and then incubated at 37°C for 24 hours. 10 µL of CCK-8 reagent was added to the 96-well plate, mixed thoroughly on a shaker, and incubated at 37°C for 2 hours. A microplate reader was used to measure the absorbance at 450 nm wavelength, and the inhibition rate of the compound on Vero cells was calculated. Table 5 Vero cytotoxicity of 4 optical isomers and control drug

[4] = system: ICR strain mice; assay: Acute toxicity in mice, single tail vein injection; format: in vivo; conditions: one week
Method: Healthy ICR strain mice weighing 20-21 g were taken for the experiment, randomly divided into groups of 3 mice per group, regardless of gender. Each compound was administered via a single tail vein injection at a volume of 20 mL/kg. Animal responses were observed immediately postadministration and monitored for one week. The number of animal deaths was recorded and mortality rates calculated.

[5] = molecular target: T1, recombinant Escherichia coli LpxC enzyme (rLpxC) (Escherichia coli, UniProt P0A725); assay: Inhibition of recombinant Escherichia coli LpxC enzyme activity (LC-MS); format: biochemical; conditions: 37°C, 30 minutes reaction, substrate UDP-3-O (R-hydroxytetradecanoyl)-N-acetylglucosamine
T1 sequence (P0A725 1-305): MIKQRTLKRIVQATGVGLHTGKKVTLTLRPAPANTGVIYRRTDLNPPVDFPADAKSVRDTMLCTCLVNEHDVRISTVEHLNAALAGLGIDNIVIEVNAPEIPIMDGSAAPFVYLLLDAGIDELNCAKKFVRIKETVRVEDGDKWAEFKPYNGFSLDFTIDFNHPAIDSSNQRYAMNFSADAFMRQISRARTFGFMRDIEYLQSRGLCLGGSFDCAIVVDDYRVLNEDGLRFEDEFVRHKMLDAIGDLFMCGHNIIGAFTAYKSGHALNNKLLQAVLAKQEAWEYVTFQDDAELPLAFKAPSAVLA
Method: Preparation of recombinant Escherichia coli LpxC enzyme (rLpxC). 2 µL of recombinant Escherichia coli LpxC enzyme (6.29 mg/mL) was added to 18 µL of distilled water. After thorough mixing, 2 µL of this mixture was added to 1042.4 µL of distilled water and mixed well to prepare a 36 nM working solution.
The substrate was UDP-3-O (R-hydroxytetradecanoyl)-N-acetylglucosamine, with UDP-α-D-N-Acetylglucosamine Disodium Salt as the internal standard. Mobile phase A: 90% water-10% acetonitrile containing 10 mM ammonium acetate; B: acetonitrile.
Reaction system: Corresponding solutions were prepared as per the table below, and placed in a 37°C metal bath, and mixed at 300 rpm for 10 minutes. After mixing for 10 minutes, 10 µl of 250 µM substrate was added to each group to initiate the reaction, and placed in a 37°C metal bath and reacted at 300 rpm for 30 minutes.
Termination solution: 1.1 µL of 1 mM internal standard was added to 2 mL of acetonitrile. 1.5 mL of EP tubes were taken and 100 µL of termination solution was added to each EP tube. The concentration of the internal standard in the final 350 µL system is 100 ng/mL.
Detection: 10 µL of reaction solution was added to 100 µL of the termination solution in an EP tube, mixed thoroughly, and then 240 µL of distilled water was added and mixed well, centrifuged at 14,000 rpm for 5 minutes. 70 µL of supernatant was transferred to an LC-MS vial and API 6500 Qtrap LC-MS system was used to measure substrates and metabolites. The median inhibition concentrations (IC50) of the four optical isomers and ACHN-975 against rLpxC enzyme were calculated. Table 4 Inhibitory activity of 4 optical isomers and control drug against recombinant Escherichia coli LpxC enzyme

[6] = system: Enterobacter cloacae; assay: In vitro antibacterial activity, agar dilution method (MIC); format: cell-based; conditions: Enterobacter cloacae CDC1000654 (NDM-1-producing); agar dilution, 35°C, 18 hours; read-out: MIC
Procedure, shortened: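 CLSI agar dilution; inoculum ~10^4 CFU per spot from 0.5 McFarland suspension diluted 10-fold. Plates incubated 35°C for 18 h. MIC taken as lowest drug concentration giving no growth.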

[7] = system: Escherichia coli ATCC BAA2469 (CRE, NDM-1-producing); assay: In vivo antibacterial activity, intraperitoneal infection in mice (survival over 7 days); conditions: for effective dose of in vivo antibacterial activity: mice with intraperitoneal infection by Escherichia coli ATCC BAA2469, intravenous; for Animal survival rate / Number of surviving animals: mice, one intravenous administration 1 hour post-infection, 7 days; for Number of surviving animals: 5 animals per group
Method: Mice were randomly grouped based on body weight, with 5 mice in each group, regardless of gender. The infectious bacteria was Escherichia coli ATCC BAA2469 (CRE, NDM-1-producing). The test bacterial solution was diluted with 5% high-activity dry yeast. Mice received intraperitoneal injection of 0.5 mL of 100% minimum lethal dose (100% MLD) bacterial solution. One intravenous administration was given at 1 hour post-infection at a dose volume of 10 mL/kg. Animal survival numbers were observed over 7 days, and survival rates were calculated.

[8] = 18 h, Escherichia coli 13-43 (mcr-1)
[9] = 18 h, Escherichia coli 17-R28 (CRE, NDM-1-producing)
[10] = ATCC2469, 18 h, Escherichia coli ATCC 2469 (CRE, NDM-1-producing)
[11] = ATCC35218, 18 h, Escherichia coli ATCC 35218 (ESBLs-producing)

COC[C@H]1C[C@H]1C#CC#Cc1ccc(C(=O)N[C@H](C(=O)NO)C(C)(C)N)cc1 [Ic, N-(S)-3-amino-1-hydroxyamino-3-methyl-1-oxobutan-2-yl-4-[[(1R,2S)-2-(methoxymethylene)cyclopropyl]but-1,3-diynyl]benzamide]
MIC [1, 8]: 0.25 µg/mL (≈ 0.652 µM)
MIC [1, 9]: 0.12 µg/mL (≈ 0.313 µM)
MIC [1, 10]: 0.12 µg/mL (≈ 0.313 µM)
MIC [1, 11]: 0.12 µg/mL (≈ 0.313 µM)
MIC [2]: 0.12 µg/mL (≈ 0.313 µM)
IC50 [3]: > 128000 nM
Mortality rate ([4]; dose 100 mg/kg): 0%
Number of deaths ([4]; dose 100 mg/kg): 0 individuals
Mortality rate ([4]; dose 150 mg/kg): 33%
Number of deaths ([4]; dose 150 mg/kg): 1 individuals
Mortality rate ([4]; dose 200 mg/kg): 100%
Number of deaths ([4]; dose 200 mg/kg): 3 individuals
IC50 [5]: 0.905 nM
MIC [6]: 1 µg/mL (≈ 2.61 µM)
effective dose of in vivo antibacterial activity [7]: below 1.5 mg/kg
Animal survival rate ([7]; dose 0.35 mg/kg): 0%
Number of surviving animals ([7]; dose 0.35 mg/kg): 0 individuals
Animal survival rate ([7]; dose 1.4 mg/kg): 80%

COC[C@@H]1C[C@@H]1C#CC#Cc1ccc(C(=O)N[C@H](C(=O)NO)C(C)(C)N)cc1 [Id, N-(S)-3-amino-1-hydroxyamino-3-methyl-1-oxobutan-2-yl-4-[[(1S,2R)-2-(methoxymethylene)cyclopropyl]but-1,3-diynyl]benzamide]
MIC [1, 8]: 0.5 µg/mL (≈ 1.3 µM)
MIC [1, 9]: 0.25 µg/mL (≈ 0.652 µM)
MIC [1, 10]: 0.25 µg/mL (≈ 0.652 µM)
MIC [1, 11]: 0.25 µg/mL (≈ 0.652 µM)
MIC [2]: 0.12 µg/mL (≈ 0.313 µM)
IC50 [3]: > 128000 nM
Mortality rate ([4]; dose 100 mg/kg): 0%
Number of deaths ([4]; dose 100 mg/kg): 0 individuals
Mortality rate ([4]; dose 150 mg/kg): 67%
Number of deaths ([4]; dose 150 mg/kg): 2 individuals
Mortality rate ([4]; dose 200 mg/kg): 100%
Number of deaths ([4]; dose 200 mg/kg): 3 individuals
IC50 [5]: 0.892 nM
MIC [6]: 1 µg/mL (≈ 2.61 µM)
effective dose of in vivo antibacterial activity [7]: below 1.5 mg/kg
Animal survival rate ([7]; dose 0.35 mg/kg): 0%
Number of surviving animals ([7]; dose 0.35 mg/kg): 0 individuals
Animal survival rate ([7]; dose 0.7 mg/kg): 0%
Number of surviving animals ([7]; dose 0.7 mg/kg): 0 individuals
Animal survival rate ([7]; dose 1.4 mg/kg): 60%
Number of surviving animals ([7]; dose 1.4 mg/kg): 3 individuals
